Read-outs that look alike come from different tables or passages of the source.
Assays:
[1] = system: E. multilocularis metacestode vesicles; experiment: microbe, parasite or virus in culture; conditions: Echinococcus multilocularis, 288 h, read-out: mean viability
[2] = cited from earlier work
[3] = design: method as in earlier work; conditions: PLS, ref MMV; cited from earlier work
[4] = design: method as in earlier work; conditions: HMS, Human; ref MMV; cited from earlier work
[5] = system: E. multilocularis metacestodes; experiment: Intraperitoneal treatment of secondary infected mice; type: in vivo, BALB/c mice; conditions: 4 weeks, MMV665807 100 mg/kg i.p. three times per week, ABZ 200 mg/kg p.o. 5 days per week
Method: Animals were kept at a temperature-controlled 12/12 hours light cycle with food and water ad libitum and according to the Swiss Animal protection law. For the in vivo treatment of MMV665807, BALB/c mice (from Charles River, Sulzfeld, Germany), at the age of 8 weeks with an average body weight of 20 g, were i.p. infected with 200 μL metacestodes vesicle suspension. This material was prepared from in vitro-cultured metacestodes (strain H95), which were disintegrated by pressing the parasites through a 1 mL pipette tip. Parasite tissue was centrifuged at 500 x g for 5 min at room temperature before being mixed 1:1 in PBS.
I.p. drug treatments were initiated 2 weeks post-infection. 32 infected mice were randomly separated into 4 groups with 2 times 4 animals per cage. All animals were exposed to 4 weeks of treatment, with five consecutive days of drug application followed by a 2 day recovery period without treatment. Treatment groups were defined as follows: group 1 (control) received 50 μL of corn oil by gavage on 5 days per week, and an i.p. injection of DMSO in corn oil (4 μL DMSO and 46 μL corn oil) on three days per week; group 2 also received corn oil by gavage 5 days per week, and an i.p. injection of MMV665807 (100 mg/kg in 4 μL DMSO plus 46 μL corn oil) three times per week; group 3 was treated with the standard albendazole treatment (albendazole in corn oil, 200 mg/kg/ day for 5 days each week) and also received an i.p. injection of 4 μl DMSO suspended in 46 μl corn oil three times per week; group 4 received a combined treatment consisting of albendazole in corn oil by gavage (200 mg/kg/day 5 days per week) and an i.p. injection of MMV665807 (100 mg/kg three times per week). After 4 weeks of treatment, mice were euthanized and the parasite mass resected and measured as described above. Statistical analyses were performed as described above.

[6] = design: method as in earlier work; conditions: MMS, Human; ref MMV; cited from earlier work
T. gondii = system: T. gondii; design: method as in PMID 22970937; conditions: cited from earlier work
hERG = system: hERG; design: method as in earlier work; conditions: ref MMV, cited from earlier work
[7] = system: E. multilocularis metacestodes; experiment: Transmission electron microscopy of treated metacestodes; type: cell-based, Echinococcus multilocularis; conditions: 5 days
Method: In vitro-cultured metacestodes were cultured for five days in the presence of 1.6, 0.8, 0.4 or 0.1 μM MMV665807, or in the absence of the drug, and were processed for TEM as previously described. In short, primary fixation was carried out in 2% glutaraldehyde in 0.1 M sodium-cacodylate buffer, pH 7.3 for 1 h, and post-fixation in 2% osmium tetroxide in 0.1 M sodium-cacodylate buffer for 2 h. Samples were then pre-stained in saturated uranyl acetate solution in water for 30 min, washed in water, and were stepwise dehydrated in ethanol (30%, 50%, 70%, 90%, and three times 100%). Subsequently specimens were embedded in epoxy resin and polymerization of the resin was carried out at 60°C for 12 h. Ultrathin sections were cut using an ultramicrotome (Reichert and Jung, Vienna, Austria), and were loaded onto formvar-carbon coated nickel grids (Plano GmbH, Marburg, Germany). Specimens were stained with uranyl acetate and lead citrate, and were viewed on a Phillips EM400 transmission electron microscope operating at 80 kV.

murine macrophages = system: murine macrophages; design: method as in PMID 23211970; conditions: cited from earlier work
[8] = system: Reuber rat hepatoma (RH) cells; experiment: alamarBlue viability assay on RH cells; type: cell-based; conditions: 120 h, 5 days
Method: For testing growth inhibitory effects on confluent host cells, cells were seeded in 96-well plates (10,000 cells per well for HFF and 50,000 cells per well for RH cells), in DMEM containing FBS (10%) and antibiotics (100 U penicillin, 100 μg streptomycin and 0.25 μg amphotericin B per mL medium) and were cultured overnight at 37°C, 5% CO2. Thereafter the drugs (10 μM) were added and diluted in a serial 1:2 dilutions down to 20 nM. The concentration range was further adjusted in subsequent setups. For testing growth inhibitory effects on proliferating cells, cells were seeded at 1,000 (HFF) and 5,000 (RH) cells per well, and were allowed to attach for 5 hours at 37°C before addition of the drugs. After 5 days of culture, cell viability was assessed by alamarBlue assay.

[9] = design: method as in earlier work; conditions: PLS, ref MMV; cited from earlier work; remark: listed apart in the source
M. tuberculosis = system: M. tuberculosis; design: method as in PMID 23211970; conditions: cited from earlier work
[10] = system: E. multilocularis metacestode vesicles; conditions: 12 days, alamarBlue vesicle viability assay
[11] = system: newly transformed schistosomula; design: method as in PMID 24416463; conditions: in vitro; read-out: IC50 against newly transformed schistosomula; cited from earlier work
[12] = PO, administered dose 119 μmol/kg, ref MMV

Work on `O=C(Nc1cccc(C(F)(F)F)c1)c1cc(Cl)ccc1O` [MMV665807] yielded a viability at 0.1 µM [1] of 59.7%, a viability at 0.2 µM [1] of 65.5% and a viability at 0.4 µM [1] of 69%. The viability at 0.8 µM [1] was 97.9%, the viability at 1.6 µM [1] was 5.29% and the viability at 3.1 µM [1] was 6.06%. The viability at 6.3 µM [1] was 4.71%, the viability at 12.5 µM [1] was 2.84% and the viability at 25 µM [1] was 2.92%. For the same compound, the viability at 50 µM [1] was 2.9%, the viability at 100 µM [1] was 3.06% and the AUC0-last [2, 12] was 0.264 µmol·h/L. For the same compound, the Cmax [2, 12] was 62.3 nM, the MRT0-last [2, 12] was 5.24 h and the Tlast [2, 12] was 9.00 h. For the same compound, the Tmax [2, 12] was 6.33 h, the plasma level ([2]; single dose p.o. application of 50 mg/kg, ref MMV (S3 Table)) was 0.06 µM and the “% Remaining after Incubation (60 min) CD-1 Mouse Plasma” value [3] was 102.5%. For the same compound, the CLint [4] was 107.6 mL/min/kg, the t½ [4] was 23.3 min and the “parasite weight compared to placebo group” value ([5]; start 2 weeks post-infection) was “did not result in a reduction”. For the same compound, the “adverse effects during treatment” value [5] was “No adverse effects”, the CL [6] was 66.8 µL/min/mg and the CLh [6] was 15.9 mL/min/kg. For the same compound, the CLint [6] was 66.1 mL/min/kg, the T1/2 [6] was 41.5 min and the “in vitro activity against T. gondii” value (T. gondii) was “moderate in vitro activity”. For the same compound, the “hERG % I (1uM)” value (hERG; 1uM) was 18%, the “hERG % I (11uM)” value (hERG; 11uM) was 40% and the hERG activity level (hERG) was “Weakly active”. For the same compound, the “ultrastructural alterations (TEM)” value ([7]; 0.1 μM and 0.4 μM) was “did not show any major alterations”, the “ultrastructural alterations (TEM)” value ([7]; 0.8 μM) was “Clear alterations in the Echinococcus ultrastructure” and the “ultrastructural alterations (TEM)” value ([7]; 1.6 μM) was “clear signs of cell death”. For the same compound, the IC50 (murine macrophages) was 5.9 µM, the IC50 ([8]; confluent cells, read-out: Confluent RH (IC50)) was 20.5 ± 0.13 µM and the IC50 ([8]; proliferating cells, read-out: Preconfluent RH (IC50)) was 4.3 ± 0.14 µM. The “% Remaining after Incubation (60 min) Human Plasma” value [9] was 83.2%, the MIC (M. tuberculosis) was 3.1 to 6.3 µM and the “lowest concentration that almost completely abolishes viability of the metacestode tissue” value [10] was 1.6 µM. For the same compound, the IC50 [11] was 1800 nM.

— publication PMC4788259 (PLoS Neglected Tropical Diseases, 2016)
